In patent US7244837B2, “Insect monoamine transporter and methods of use thereof” (The University of Western Ontario, priority 1999, dated 2007):

Target: T1, OA/TAT (octopamine/tyramine transporter) (Trichoplusia ni, UniProt Q95VZ4, D309A/R312W)
T1 sequence (Q95VZ4 75-744 D309A/R312W): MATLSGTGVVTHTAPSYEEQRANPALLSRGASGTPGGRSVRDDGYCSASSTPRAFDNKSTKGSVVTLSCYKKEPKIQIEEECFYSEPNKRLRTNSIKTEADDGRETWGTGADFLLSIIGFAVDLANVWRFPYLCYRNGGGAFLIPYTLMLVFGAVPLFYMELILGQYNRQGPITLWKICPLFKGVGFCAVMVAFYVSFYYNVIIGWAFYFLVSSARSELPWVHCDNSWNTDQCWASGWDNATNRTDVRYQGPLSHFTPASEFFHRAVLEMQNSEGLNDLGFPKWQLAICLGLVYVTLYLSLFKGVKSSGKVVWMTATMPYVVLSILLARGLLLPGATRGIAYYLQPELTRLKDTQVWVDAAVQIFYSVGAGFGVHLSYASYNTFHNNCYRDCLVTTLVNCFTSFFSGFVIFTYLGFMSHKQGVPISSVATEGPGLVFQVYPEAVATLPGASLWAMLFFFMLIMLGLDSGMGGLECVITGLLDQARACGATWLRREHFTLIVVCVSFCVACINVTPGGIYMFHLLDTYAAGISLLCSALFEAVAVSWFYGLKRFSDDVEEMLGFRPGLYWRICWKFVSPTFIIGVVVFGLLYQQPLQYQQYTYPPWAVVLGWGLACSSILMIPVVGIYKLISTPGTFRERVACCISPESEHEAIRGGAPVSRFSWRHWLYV
Experiment: 3H-dopamine uptake by OA/TAT expressed in baculovirus-infected Sf21 insect cells (transport assay)
Type: cell-based
Conditions: for inhibition at 10 µM: read-out: % Inhibition of 3H-Dopamine uptake by OA/TAT

Row | Compound | IC50 [nM] | Ki [nM] | inhibition at 10 µM [%]
1 | NCC(O)c1ccc(O)cc1 (racemic) [Octopamine, DL-Octopamine] | 1920 ± 280 | 1740 ± 250 | 80.9
2 | CNCC(O)c1ccc(O)cc1 (racemic) [Synephrine, (±)-Synephrine] |  |  | 6.39
3 | NCCc1ccc(O)c(O)c1 [Dopamine, 3-Hydroxytyramine] | 4100 ± 1020 | 3720 ± 920 | 70.2
4 | Fc1ccc(C(OCCN2CCN(CCCc3ccccc3)CC2)c2ccc(F)cc2)cc1 [GBR12909] |  |  | -10
5 | NCCc1c[nH]cn1 [Histamine] |  |  | -1.81
6 | NC[C@H](O)c1ccc(O)c(O)c1 [Norepinephrine, (−)-Arterenol] | 22000 ± 2940 | 20000 ± 2670 | 27.2
7 | CN[C@@H](C)[C@@H](O)c1ccccc1 [Pseudoephedrine, (−)-ψ-Ephedrine] |  |  | 1.31
8 | NCCc1c[nH]c2ccc(O)cc12 [Serotonin, 5-Hydroxytryptamine] |  |  | -3.6
9 | NCCc1c[nH]c2ccccc12 [Tryptamine] |  |  | 9.57
10 | NCCc1ccc(O)cc1 [Tyramine] | 390 ± 110 | 350 ± 100 | 96.5
